Source: paper PMC6274715, “Discovery of Novel Druggable Sites on Zika Virus NS3 Helicase Using X-ray Crystallography-Based Fragment Screening” (International Journal of Molecular Sciences, 2018)

Molecular target: T1, ZIKV NS3-Hel (Zika virus NS3 helicase) (Zika virus ZIKV/H. sapiens/FrenchPolynesia/10087PF/2013, UniProt A0A024B7W1)
T1 construct: helicase domain, residues 171-617 of NS3, cut from the genome polyprotein; N-terminal 6xHis-SUMO tag cleaved off
Experiment: STD NMR titration; crystal structure also solved
Assay type: binding

T1 sequence (A0A024B7W1 1673-2119): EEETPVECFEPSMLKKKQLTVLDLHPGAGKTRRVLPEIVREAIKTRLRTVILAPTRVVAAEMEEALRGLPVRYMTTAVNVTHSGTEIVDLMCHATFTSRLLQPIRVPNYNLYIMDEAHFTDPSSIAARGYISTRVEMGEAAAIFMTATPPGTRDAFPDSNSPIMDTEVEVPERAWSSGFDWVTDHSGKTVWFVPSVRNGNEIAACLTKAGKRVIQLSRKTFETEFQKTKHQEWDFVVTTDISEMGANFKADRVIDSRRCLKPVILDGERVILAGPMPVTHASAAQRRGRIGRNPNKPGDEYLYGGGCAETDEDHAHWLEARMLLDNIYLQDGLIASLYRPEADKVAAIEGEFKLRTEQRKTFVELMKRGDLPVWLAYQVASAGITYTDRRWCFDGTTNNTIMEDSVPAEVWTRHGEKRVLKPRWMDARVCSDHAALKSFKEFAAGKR

SMILES | Kd
NC(=O)c1ccc(Cl)cc1Cl [compound 4, 2,4-dicholorobenzamide] | 5.1 ± 1.4 mM
Nc1nc(N)c2[nH]cnc2n1 [compound 1, 2,6-di-aminopurine] | 2.8 ± 0.4 mM
